# Reference: paper PMC10812557, “Progressive Design of a Ranatuerin-2 Peptide from Amolops wuyiensis: Enhancement of Bioactivity and In Vivo Efficacy” (Antibiotics, 2023)
# Several values for one entry are separate records, joined by “and”; a condition that tells them apart may be missing. Equal values may be shown once. Read-outs that look alike come from different tables or passages of the source. Peptide text beside a SMILES is read from it.
# Tests used:
# [1] = system: K. pneumoniae (ATCC 43816); type: cell-based, Klebsiella pneumoniae
# Procedure: (§1) As a previous study described in detail, the ability of R2AW and its analogues to inhibit and eradicate the formation of biofilm was investigated. The MBIC is the lowest concentration which inhibits the formation of biofilm. The MBEC is the minimum concentration that eradicates biofilm. Six bacterial strains were used, as described above. Briefly, the bacteria were cultured and then diluted to 5 × 10^5 CFU/mL. In MBIC assays, 1 μL of each concentration of R2AW and its analogues (ranging from 512 × 10^2 μM to 100 μM) was mixed with 99 μL of diluted bacterial suspension in a 96-well plate for 16-20 h at 37 °C. As for MBEC assays, 100 μL of cultured bacteria were seeded in a 96-well plate and incubated on the shaking incubator at 37 °C overnight for biofilm formation. Subsequently, each well was rinsed twice with 100 μL sterile PBS to remove planktonic cells, and then replaced with 100 μL of each concentration (ranging from 512 μM to 1 μM) of peptides. After 24 h incubation, the biofilm was washed twice with 100 μL of PBS and fixed with methanol. Next, the same volume of 0.1% crystal violet solution (Sigma-Aldrich, Gillingham, UK) was added to each well to stain the biofilm. After that, 100 μL of 30% of acetic acid (Sigma-Aldrich, Gillingham, UK) was transferred to each well for dissolution. The solutions were transferred into a new 96-well plate and the absorbances of wells was monitored using a Synergy HT plate reader set to 595 nm.
# [2] = system: P. aeruginosa (ATCC 9027); type: cell-based, Pseudomonas aeruginosa
# Procedure: as §1
# [3] = system: K. pneumoniae (ATCC 43816); type: cell-based
# From the text: (§2) The MIC and MBC assays were used to assess the inhibitory activities of all 5 analogues of R2AW on the growth of planktonic microorganisms. The MIC is the lowest concentration that prevents the viable growth of bacteria. The MBC is the lowest concentration that results in bacterial death. Six microorganisms were used to detect the antimicrobial activity of peptides, including Gram-positive bacteria S. aureus (NCTC 10788), MRSA (NCTC 12493), Enterococcus faecalis (E. faecalis) (NCTC 12697), Gram-negative bacteria E. coli […], Klebsiella pneumoniae (K. pneumoniae) (ATCC 43816), and Pseudomonas aeruginosa (P. aeruginosa) (ATCC 9027). According to the assay described previously, the microorganisms were inoculated at 37 °C overnight and diluted to 5 × 10^5 CFU/mL after reaching the logarithmic growth period. The peptide stock solution at the concentration of 512 × 10^2 μM was prepared and diluted to 100 μM by a 2-fold dilution. One μL of each concentration of peptide solution was incubated with 99 μL of bacterial subculture in the 96-well plate for 18 h at 37 °C. The absorbance was determined at a wavelength of 550 nm using a Synergy HT plate reader (Bio Tek, Washington, DC, USA). […] As for those wells that were clearly visible, 20 μL of the solution was dropped onto the Mueller Hinton agar (MHA) dish and then incubated at 37 °C overnight. The lowest concentration with no colony growth was determined as the MBC.
# [4] = system: P. aeruginosa (ATCC 9027); type: cell-based
# From the text: as §2
# E. coli (ATCC 8739) [5] = type: cell-based
# From the text: as §2
# U251MG = type: cell-based, human; settings: 24 h
# Procedure: (§3) Five human cancer cell lines of non-small-cell lung cancer H838, human prostate carcinoma PC-3, human neuronal glioblastoma U251MG, human breast cancer cell MCF-7, and colorectal carcinoma HCT116 were used to detect the antiproliferative abilities of R2AW and its five analogues. According to the procedures in a previous article, cells (8000 cells/well) were seeded into the 96-well tissue culture plates and incubated at 37 °C with 5% CO2 overnight. The solutions of R2AW and its analogues at concentrations of 10^−4 M to 10^−9 M were prepared in the serum-free medium. Next, cells in each well were treated with 100 μL of each peptide solution for 24 h. Subsequently, 10 μL of 5 mg/mL MTT (3-(4, 5-Dimethylthiazol-2-yl-)-2, 5-Diphehyltetrazolium Bromide) was added to each well followed by 37 °C incubation for 2 h. After that, the liquid in each well was removed and 100 μL of DMSO was added to dissolve the purple formazan. The plate was placed on a shaking incubator for 10 min, and the absorbance was detected at 550 nm using a Synergy HT plate reader (Biotech, Minneapolis, MN, USA).
# H838 = type: cell-based, human; settings: 24 h
# Procedure: as §3
# HCT116 = type: cell-based, human; settings: 24 h
# Procedure: as §3
# PC-3 = type: cell-based, human; settings: 24 h
# Procedure: as §3
# MCF-7 = type: cell-based, human; settings: 24 h
# Procedure: as §3
# [6] = system: five human cancer cell lines; type: cell-based; settings: 24 h
# Procedure: as §3
# S. aureus (NCTC 10788) [7] = type: cell-based, Staphylococcus aureus
# Procedure: as §1
# E. coli (ATCC 8739) [8] = type: cell-based, Escherichia coli
# Procedure: as §1
# E. faecium (NTCC 12697) [9] = type: cell-based
# Procedure: as §1
# E. faecium (NTCC 12697) [10] = experiment: microbe, parasite or virus in culture; type: cell-based; settings: NTCC 12697, 18 h
# From the text: as §2
# S. aureus (NCTC 10788) [11] = experiment: microbe, parasite or virus in culture; type: cell-based; settings: NCTC 10788, 18 h
# From the text: as §2
# MRSA (NCTC 12493) [12] = experiment: microbe, parasite or virus in culture; type: cell-based; settings: MRSA (NCTC 12493)
# From the text: as §2
# [13] = system: Galleria mellonella larvae; experiment: Toxicity in waxworms with no MRSA treatment; type: in vivo; settings: 10 mg/kg
# MRSA (NCTC 12493) [14] = type: cell-based, methicillin-resistant Staphylococcus aureus; settings: NCTC 12493
# Procedure: as §1
# [15] = system: P. aeruginosa (ATCC 9027); experiment: Time–killing assay; type: cell-based, Pseudomonas aeruginosa; settings: peptide control
# Procedure: (§4) S. aureus (NCTC 10788), E. coli (ATCC 8739), MRSA (NCTC 12493), and P. aeruginosa (ATCC 9027) were used in this assay. Treatments of 2 × MIC, 1 × MIC, and 0.5 × MIC of [Lys^4,19, Leu^20]R2AW(1-22)-NH2 were prepared and mixed with 198 μL of diluted bacteria (5 × 10^5 CFU/mL). At each time point (0, 10, 20, 30, 60, 90, 120, and 180 min), 10 μL of peptide and bacteria mixture was dropped onto the MHA plate. After overnight incubation, the number of bacterial colonies was calculated. The CFU/mL could be calculated using the formula CFU/mL = (Number of colonies × dilution factor)/volume of culture.
# E. coli (ATCC 8739) [16] = experiment: Time–killing assay; type: cell-based, Escherichia coli; settings: peptide control
# Procedure: as §4
compound,measurement,setting,value
"CSCC[C@H](NC(=O)[C@H](Cc1ccccc1)NC(=O)CN)C(=O)N[C@@H](CCCCN)C(=O)N[C@H](C(=O)N[C@@H](C)C(=O)N[C@@H](CCCCN)C(=O)N[C@@H](CC(N)=O)C(=O)N[C@H](C(=O)N[C@@H](C)C(=O)N[C@@H](CCCCN)C(=O)N[C@@H](CC(N)=O)C(=O)N[C@H](C(=O)N[C@@H](C)C(=O)N[C@@H](C)C(=O)N[C@H](C(=O)N[C@@H](CC(C)C)C(=O)N[C@@H](CC(C)C)C(=O)N[C@@H](CCCCN)C(=O)N[C@@H](CC(C)C)C(=O)N[C@@H](CC(C)C)C(=O)N[C@@H](CCCCN)C(N)=O)[C@@H](C)O)C(C)C)C(C)C)[C@@H](C)O [[Lys^4,19, Leu^20]R2AW(1-22)-NH2] (H-GFMKTAKNVAKNVAATLLKLLK-NH2)",MBEC,[1],256 µM
same,MBIC,[1],8 µM
same,MBEC,[2],512 µM
same,MBIC,[2],16 µM
same,MBC,"[3]; ATCC 43816, 18 h",18.9 mg/L
same,MIC,"[3]; ATCC 43816, 18 h",9.4 mg/L
same,MBC,"[4]; ATCC 9027, 18 h",37.7 mg/L
same,MIC,"[4]; ATCC 9027, 18 h",18.9 mg/L
same,MBC,"E. coli (ATCC 8739) [5]; ATCC 8739, 18 h",9.4 mg/L
same,MIC,"E. coli (ATCC 8739) [5]; ATCC 8739, 18 h",4.7 mg/L
same,IC50,U251MG,12.4 µM
same,IC50,H838,7.83 µM
same,IC50,HCT116,9.28 µM
same,IC50,PC-3,3.67 µM
same,IC50,MCF-7,10.6 µM
same,IC50,[6],3.67 to 12 µM
same,MBEC,S. aureus (NCTC 10788) [7],256 µM
same,MBIC,S. aureus (NCTC 10788) [7],4 µM
same,MBEC,E. coli (ATCC 8739) [8],256 µM
same,MBIC,E. coli (ATCC 8739) [8],4 µM
same,MBEC,E. faecium (NTCC 12697) [9],> 512 µM
same,MBIC,E. faecium (NTCC 12697) [9],8 µM
same,MBC,E. faecium (NTCC 12697) [10],18.9 µg/mL
same,MIC,E. faecium (NTCC 12697) [10],9.4 µg/mL
same,MBC,S. aureus (NCTC 10788) [11],4.7 µg/mL
same,MIC,S. aureus (NCTC 10788) [11],4.7 µg/mL
same,MBC,MRSA (NCTC 12493) [12],4.7 µg/mL
same,MIC,MRSA (NCTC 12493) [12],4.7 µg/mL
same,death of larvae with no MRSA treatment,[13],no death
same,MBEC,MRSA (NCTC 12493) [14],> 512 µM
same,MBIC,MRSA (NCTC 12493) [14],4 µM
Colistin [reference compound],killing effect in time–killing curve,[15],rapid bacterial killing effect
same,killing effect in time–killing curve,E. coli (ATCC 8739) [16],rapid bacterial killing effect
same,MBC,[3]; K. pneumoniae (ATCC 43816),18.5 mg/L and 16 µM
same,MIC,[3]; K. pneumoniae (ATCC 43816),18.5 mg/L and 16 µM
same,MBC,[4]; P. aeruginosa (ATCC 9027),2.3 mg/L and 2 µM
same,MIC,[4]; P. aeruginosa (ATCC 9027),1.2 mg/L and 1 µM
same,MBC,E. coli (ATCC 8739) [5]; E. coli (ATCC 8739),0.3 mg/L and 0.25 µM
same,MIC,E. coli (ATCC 8739) [5]; E. coli (ATCC 8739),0.1 mg/L and 0.125 µM
